Laboratory results from the NIST ThermoML archive (doi:10.1016/j.jct.2012.11.020).
± gives the expanded uncertainty stated by the source.

Assay: wn = mass fraction of the nth substance listed
Conditions: 298.15 K, 100 kPa, Liquid, Alternating current cell with electrodes

C1CC[NH2+]C1.O=[N+]([O-])[O-] [pyrrolidinium nitrate] + CC1COC(=O)O1
electrical conductivity (w1 = 0.1266): 0.874 ± 0.15 S/m
electrical conductivity (w1 = 0.1348): 0.927 ± 0.15 S/m
electrical conductivity (w1 = 0.1441): 0.989 ± 0.15 S/m
electrical conductivity (w1 = 0.1543): 1.06 ± 0.16 S/m
electrical conductivity (w1 = 0.1646): 1.12 ± 0.16 S/m
electrical conductivity (w1 = 0.1788): 1.24 ± 0.16 S/m
electrical conductivity (w1 = 0.1948): 1.32 ± 0.17 S/m
electrical conductivity (w1 = 0.2149): 1.45 ± 0.18 S/m
electrical conductivity (w1 = 0.2396): 1.62 ± 0.22 S/m
electrical conductivity (w1 = 0.2529): 1.7 ± 0.21 S/m
electrical conductivity (w1 = 0.2692): 1.94 ± 0.23 S/m
electrical conductivity (w1 = 0.2862): 2.05 ± 0.25 S/m
electrical conductivity (w1 = 0.3073): 2.2 ± 0.22 S/m
electrical conductivity (w1 = 0.3274): 2.32 ± 0.23 S/m
electrical conductivity (w1 = 0.3479): 2.46 ± 0.23 S/m
electrical conductivity (w1 = 0.3768): 2.63 ± 0.24 S/m
electrical conductivity (w1 = 0.3915): 2.71 ± 0.24 S/m
electrical conductivity (w1 = 0.4212): 2.86 ± 0.26 S/m
electrical conductivity (w1 = 0.4476): 3.05 ± 0.26 S/m
electrical conductivity (w1 = 0.4916): 3.21 ± 0.27 S/m
electrical conductivity (w1 = 0.5453): 3.46 ± 0.29 S/m
electrical conductivity (w1 = 0.5834): 3.62 ± 0.3 S/m
electrical conductivity (w1 = 0.6211): 3.74 ± 0.3 S/m
electrical conductivity (w1 = 0.6897): 3.92 ± 0.32 S/m
electrical conductivity (w1 = 0.7407): 4.12 ± 0.34 S/m
electrical conductivity (w1 = 0.8065): 4.28 ± 0.35 S/m
electrical conductivity (w1 = 0.8913): 4.47 ± 0.36 S/m
electrical conductivity (w1 = 1): 4.22 ± 0.34 S/m
